# Data taken from patent US20180213779A1, “PESTICIDALLY ACTIVE HETEROCYCLIC DERIVATIVES WITH SULPHUR CONTAINING SUBSTITUENTS” (SYNGENTA PARTICIPATIONS AG, priority 2015, published 2018).
# Experiments:
# [1] = system: Spodoptera littoralis (Egyptian Cotton Leaf Worm); assay: Example B4: Activity against Spodoptera littoralis (sprayed cotton leaf discs); type: in vivo; conditions: foliar, 72 h, application rate of 200 ppm, L1 larvae, 3 days after infestation
# Method: Example B4: Activity Against Spodoptera littoralis (Egyptian Cotton Leaf Worm)
# Cotton leaf discs were placed on agar in 24-well microtiter plates and sprayed with aqueous test solutions prepared from 10′000 ppm DMSO stock solutions. After drying the leaf discs were infested with five L1 larvae. The samples were assessed for mortality, anti-feedant effect, and growth inhibition in comparison to untreated samples 3 days after infestation. Control of Spodoptera littoralis by a test sample is given when at least one of the categories mortality, anti-feedant effect, and growth inhibition is higher than the untreated sample.
# [2] = system: Diabrotica balteata (Corn Root Worm); assay: Example B6: Activity against Diabrotica balteata (sprayed maize sprouts); type: in vivo; conditions: 96 h, application rate of 200 ppm, L2 larvae, 4 days after infestation, read-out: effect in at least one of the two categories (mortality or growth inhibition)
# Method: Example B6: Activity Against Diabrotica Balteata (Corn Root Worm)
# Maize sprouts placed onto an agar layer in 24-well microtiter plates were treated with aqueous test solutions prepared from 10′000 ppm DMSO stock solutions by spraying. After drying, the plates were infested with L2 larvae (6 to 10 per well). The samples were assessed for mortality and growth inhibition in comparison to untreated samples 4 days after infestation.
# [3] = system: Plutella xylostella (Diamond-Back Moth); assay: Example B3: Plutella xylostella larvicide, feeding/contact activity, preventative (artificial diet, 96-well); type: in vivo; conditions: 216 h, application rate of 500 ppm, mortality assessed 9 days after treatment
# Method: Example B3: Plutella xylostella (Diamond-Back Moth) larvicide, feeding/contact activity, preventative Artificial diet was dispensed into a 96-well microtiter plate and treated with aqueous test solutions prepared from 10′000 ppm DMSO stock solutions. Eggs were suspended above the treated diet and first instar larvae hatched onto the diet. Mortality was assessed 9 days after treatment.
# [4] = system: Plutella xylostella (Diamond Back Moth); assay: Example B11: Activity against Plutella xylostella (artificial diet, 24-well, L2 larvae); type: in vivo; conditions: 120 h, application rate of 200 ppm, 5 days after infestation, read-out: effect in at least one of the two categories (mortality or growth inhibition)
# Method: Example B11: Activity Against Plutella xylostella (Diamond Back Moth)
# 24-well microtiter plates with artificial diet were treated with aqueous test solutions prepared from 10′000 ppm DMSO stock solutions by pipetting. After drying, the plates were infested with L2 larvae (10 to 15 per well). The samples were assessed for mortality and growth inhibition in comparison to untreated samples 5 days after infestation.
# [5] = system: Euschistus heros (Neotropical Brown Stink Bug); assay: Example B7: Activity against Euschistus heros (sprayed soybean leaves); type: in vivo; conditions: 120 h, application rate of 200 ppm, N2 nymphs, 5 days after infestation, read-out: effect in at least one of the two categories (mortality or growth inhibition)
# Method: Example B7: Activity Against Euschistus heros (Neotropical Brown Stink Bug)
# Soybean leaves on agar in 24-well microtiter plates were sprayed with aqueous test solutions prepared from 10′000 ppm DMSO stock solutions. After drying the leaves were infested with N2 nymphs. The samples were assessed for mortality and growth inhibition in comparison to untreated samples 5 days after infestation.
# [6] = system: Myzus persicae (Green Peach Aphid); assay: Example B8: Activity against Myzus persicae (sprayed sunflower leaf discs); type: in vivo; conditions: foliar, 144 h, application rate of 200 ppm, mixed ages, 6 days after infestation
# Method: Example B8: Activity Against Myzus persicae (Green Peach Aphid)
# Sunflower leaf discs were placed onto agar in a 24-well microtiter plate and sprayed with aqueous test solutions prepared from 10′000 ppm DMSO stock solutions. After drying, the leaf discs were infested with an aphid population of mixed ages. The samples were assessed for mortality 6 days after infestation.
# [7] = system: Spodoptera littoralis (Egyptian Cotton Leaf Worm); assay: Example B5: Activity against Spodoptera littoralis (systemic, lettuce grown on treated agar); type: in vivo; conditions: 144 h, test rate of 12.5 ppm, 6 days after infestation, uptake by lettuce roots, read-out: effect in at least one of the three categories (mortality, anti-feeding, or growth inhibition)
# Text: Example B5: Activity Against Spodoptera littoralis (Egyptian Cotton Leaf Worm)
# Test compounds were applied by pipette from 10′000 ppm DMSO stock solutions into 24-well plates and mixed with agar. Lettuce seeds were placed onto the agar and the multi well plate was closed by another plate which contained also agar. After 7 days the compound was absorbed by the roots and the lettuce grew into the lid plate. The lettuce leaves were then cut off into the lid plate. Spodoptera eggs were pipetted through a plastic stencil onto a humid gel blotting paper and the lid plate was closed with it. The samples were assessed for mortality, anti-feedant effect and growth inhibition in comparison to untreated samples 6 days after infestation.
# [8] = system: Myzus persicae (Green Peach Aphid); assay: Example B9: Activity against Myzus persicae (roots of pea seedlings in test solutions); type: in vivo; conditions: 144 h, test rate of 24 ppm, mixed ages, 6 days after placing seedlings into test solutions
# Method: Example B9: Activity Against Myzus persicae (Green Peach Aphid)
# Roots of pea seedlings infested with an aphid population of mixed ages were placed directly into aqueous test solutions prepared from 10′000 DMSO stock solutions. The samples were assessed for mortality 6 days after placing seedlings into test solutions.
SMILES,melting point [°C],effect (mortality or growth inhibition) at 200 ppm [2] [%],pest or weed control at 500 ppm [3] [%],also measured
"CCS(=O)(=O)c1cc(C(F)(F)F)cnc1-c1cn(-c2ccc(C(F)(F)F)cc2)nn1 [Compound P2, 3-(ethylsulfonyl)-5-(trifluoromethyl)-2-(1-(4-(trifluoromethyl)phenyl)-1H-1,2,3-triazol-4-yl)pyridine]",212 to 213,,,
CCS(=O)(=O)c1cc(C(F)(F)F)cnc1-c1nnc(-c2ccc(C(F)(F)F)cc2)o1 [Compound P3],,,,"percent control (mortality, anti-feedant effect or growth inhibition) at 200 ppm [1]: ≥ 80%"
"CCS(=O)(=O)c1cc(C(F)(F)F)cnc1-c1nnc(-c2cc(C(F)(F)F)ccn2)o1 [Compound P5, 2-[3-ethylsulfonyl-5-(trifluoromethyl)-2-pyridyl]-5-[4-(trifluoromethyl)-2-pyridyl]-1,3,4-oxadiazole]",,≥ 80,,
CCS(=O)(=O)c1cc(C(F)(F)F)ccc1-c1nnc(-c2ccc(C(F)(F)F)nc2)o1 [Compound P7],,,≥ 70,
CCS(=O)(=O)c1cc(C(F)(F)F)cnc1-c1noc(-c2ccc(C(F)(F)F)cc2)c1C [Compound P8],,,≥ 70,
"CCSc1cc(C(F)(F)F)cnc1-c1cc(-c2ccc(C(F)(F)F)cc2)on1 [Compound P11, 3-(3-ethylsulfanyl-5-(trifluoromethyl)pyridin-2-yl)-5-(4-(trifluoromethyl)phenyl)-isoxazole]",145 to 146,,,
"CCS(=O)(=O)c1cc(-c2ccc(Cl)cc2)cnc1-c1cn(-c2cccc(C(F)(F)F)c2)nn1 [Compound P13, 5-(4-chlorophenyl)-3-ethylsulfonyl-2-[1-[3-(trifluoromethyl)phenyl]triazol-4-yl]pyridine]",,≥ 80,≥ 70,"percent control (mortality, anti-feedant effect or growth inhibition) at 200 ppm [1]: ≥ 80%; percent effect (mortality or growth inhibition) at 200 ppm [4]: ≥ 80%"
CCSc1cccnc1-c1cn(-c2cccc(C(F)(F)F)c2)nn1 [Compound P14],,≥ 80,≥ 70,percent effect (mortality or growth inhibition) at 200 ppm [5]: ≥ 80%; mortality at 200 ppm [6]: ≥ 80%; percent effect (mortality or growth inhibition) at 200 ppm [4]: ≥ 80%
CCS(=O)(=O)c1cccnc1-c1cn(-c2cccc(C(F)(F)F)c2)nn1 [Compound P15],,≥ 80,≥ 70,"percent control (mortality, anti-feedant effect or growth inhibition) at 200 ppm [1]: ≥ 80%; percent effect (mortality, anti-feeding or growth inhibition) at 12.5 ppm [7]: ≥ 80%; percent effect (mortality or growth inhibition) at 200 ppm [5]: ≥ 80%; mortality at 200 ppm [6]: ≥ 80%; percent effect (mortality or growth inhibition) at 200 ppm [4]: ≥ 80%"
"CCSc1cccnc1-c1cn(-c2ccc(C(F)(F)F)cc2)nn1 [Compound P16, 3-ethylsulfanyl-2-[1-[4-(trifluoromethyl)phenyl]triazol-4-yl]pyridine]",,,≥ 70,percent effect (mortality or growth inhibition) at 200 ppm [4]: ≥ 80%
"CCS(=O)(=O)c1cccnc1-c1cn(-c2ccc(C(F)(F)F)cc2)nn1 [Compound P17, 3-ethylsulfonyl-2-[1-[4-(trifluoromethyl)phenyl]triazol-4-yl]pyridine]",,≥ 80,≥ 70,"percent control (mortality, anti-feedant effect or growth inhibition) at 200 ppm [1]: ≥ 80%; percent effect (mortality or growth inhibition) at 200 ppm [5]: ≥ 80%; percent effect (mortality or growth inhibition) at 200 ppm [4]: ≥ 80%"
CCS(=O)(=O)c1cccnc1-c1cn(-c2cncc(C(F)(F)F)c2)nn1 [Compound P20],,≥ 80,≥ 70,"percent control (mortality, anti-feedant effect or growth inhibition) at 200 ppm [1]: ≥ 80%; percent effect (mortality, anti-feeding or growth inhibition) at 12.5 ppm [7]: ≥ 80%; mortality at 200 ppm [6]: ≥ 80%; mortality at 24 ppm [8]: ≥ 80%; percent effect (mortality or growth inhibition) at 200 ppm [4]: ≥ 80%"
CCSc1cc(C(F)(F)F)cnc1-c1cn(-c2cncc(C(F)(F)F)c2)nn1 [Compound P21],,≥ 80,≥ 70,
CCS(=O)(=O)c1cc(C(F)(F)F)cnc1-c1cn(-c2ccc(C(F)(F)F)nc2)nn1 [Compound P22],,≥ 80,≥ 70,"percent control (mortality, anti-feedant effect or growth inhibition) at 200 ppm [1]: ≥ 80%; percent effect (mortality or growth inhibition) at 200 ppm [4]: ≥ 80%"
CCS(=O)(=O)c1cc(C(F)(F)F)cnc1-c1cn(-c2cncc(C(F)(F)F)c2)nn1 [Compound P23],,≥ 80,≥ 70,"percent control (mortality, anti-feedant effect or growth inhibition) at 200 ppm [1]: ≥ 80%; percent effect (mortality, anti-feeding or growth inhibition) at 12.5 ppm [7]: ≥ 80%"
CCSc1cccnc1-c1cn(-c2ccc(C(F)(F)F)nc2)nn1 [Compound P24],,≥ 80,≥ 70,
CCS(=O)(=O)c1cccnc1-c1cn(-c2ccc(C(F)(F)F)nc2)nn1 [Compound P25],,≥ 80,≥ 70,percent effect (mortality or growth inhibition) at 200 ppm [5]: ≥ 80%; mortality at 24 ppm [8]: ≥ 80%; percent effect (mortality or growth inhibition) at 200 ppm [4]: ≥ 80%
CCSc1ccc(Cl)nc1-c1cc(-c2cc(C(F)(F)F)ccn2)n(C)n1 [Compound P28],138 to 140,,,
CCS(=O)(=O)c1ccc(Cl)nc1-c1cc(-c2cc(C(F)(F)F)ccn2)n(C)n1 [Compound P29],255 to 257,,,
CCS(=O)(=O)c1cccnc1-c1cc(-c2cc(C(F)(F)F)ccn2)n(C)n1 [Compound P30],171 to 173,,,
CCS(=O)(=O)c1ccc(-n2cncn2)nc1-c1cc(-c2cc(C(F)(F)F)ccn2)n(C)n1 [Compound P31],238 to 240,,,
"CCSc1ccc(Cl)nc1-c1cc(-c2ccc(C(F)(F)F)nc2)n(C)n1 [Compound P32, 6-chloro-3-ethylsulfanyl-2-[1-methyl-5-[6-(trifluoromethyl)-3-pyridyl]pyrazol-3-yl]pyridine]",136 to 138,,,
"CCS(=O)(=O)c1ccc(Cl)nc1-c1cc(-c2ccc(C(F)(F)F)nc2)n(C)n1 [Compound P33, 6-chloro-3-ethylsulfonyl-2-[1-methyl-5-[6-(trifluoromethyl)-3-pyridyl]pyrazol-3-yl]pyridine]",198 to 200,,,
"CCS(=O)(=O)c1cccnc1-c1cc(-c2ccc(C(F)(F)F)nc2)n(C)n1 [Compound P34, 3-ethylsulfonyl-2-[1-methyl-5-[6-(trifluoromethyl)-3-pyridyl]pyrazol-3-yl]pyridine]",160 to 162,,,
"CCS(=O)(=O)c1ccc(-n2cncn2)nc1-c1cc(-c2ccc(C(F)(F)F)nc2)n(C)n1 [Compound P35, 3-ethylsulfonyl-2-[1-methyl-5-[6-(trifluoromethyl)-3-pyridyl]pyrazol-3-yl]-6-(1,2,4-triazol-1-yl)pyridine]",175 to 177,,,
CCSc1ccc(Cl)nc1-c1cc(-c2cncc(C(F)(F)F)c2)n(C)n1 [Compound P36],125 to 126,,,
CCS(=O)(=O)c1ccc(Cl)nc1-c1cc(-c2cncc(C(F)(F)F)c2)n(C)n1 [Compound P37],152 to 153,,,
CCS(=O)(=O)c1ccc(-n2cncn2)nc1-c1cc(-c2cncc(C(F)(F)F)c2)n(C)n1 [Compound P39],235 to 237,,,
